One assay relates to Bacillus cereus. Format: cell-based. The method, then: (§1) All these peptides were tested for their antibacterial activity using standard minimal inhibitory concentration (MIC) assays exactly as described in Mattheus et al. […] They are identical except for the glutamine residues, which are replaced with methyl protected glutamic acid residues in ABCD-Phaol. Although ABCD-Phaol should be a functionally reliable model of its natural counterpart, the difference in activity can only be explained by the different interaction with the membrane of the amino acid residue side chains. The amide interaction positively influences activity, so the conversion of Glu(OMe) to Gln improves the activity.

The next assay deals with Bacillus subtilis. Format: cell-based. On the procedure:
as §1

The next assay concerns Enterococcus faecalis. Type of assay: cell-based. The method, then:
as §1

The test system of assay [1] is Staphylococcus aureus. Format: cell-based. On the procedure:
as §1

In assay [2] the test system is Bacillus cereus, Bacillus subtilis, Enterococcus faecalis, Staphylococcus aureus. Description: Antibacterial activity, MIC assays, overall statement on the bacteria tested. The following applies: standard MIC assays; four bacteria tested. Format: cell-based. On the procedure: as §1
Assay [3] relates to Staphylococcus aureus. The following applies: natural Septocylindrin B; ref [1]; cited from earlier work. The text has this: Table 1 Antibacterial activity (MIC, µM) of Septocylindrin B and selected analogues. ^a | column: Staphylococcus aureus
Where [4] appears, read: standard MIC assay as described in Mattheus et al. [13], cell holds only footnote mark d.
Setting [5] is: standard MIC assay as described in Mattheus et al. [13].

Read-outs that look alike come from different tables or passages of the source. Square brackets hold non-standard residues; d marks the D form. Peptide text beside a SMILES is read from it. * marks the point of attachment. X2 = CCCCCCNC[C@H](Cc1ccccc1)N*; X3 = OCCCCCNC[C@H](Cc1ccccc1)N*; X1 = OCCNC[C@H](Cc1ccccc1)N*; Aib = CC(C)(N)C(=O)O

On to `COC(=O)CC[C@H](NC(=O)[C@H](C)NC(=O)C(C)(C)NC(=O)[C@H](C)NC(=O)C(C)(C)NC(=O)[C@@H]1CCCN1C(=O)C(C)(C)NC(C)=O)C(=O)NC(C)(C)C(=O)N[C@H](C(=O)NC(C)(C)C(=O)NCC(=O)N[C@@H](CC(C)C)C(=O)NC(C)(C)C(=O)N1CCC[C@H]1C(=O)N[C@H](C(=O)NC(C)(C)C(=O)NC(C)(C)C(=O)N[C@@H](CCC(=O)OC)C(=O)N[C@@H](CCC(=O)OC)C(=O)N[C@H](CNCCCCCO)Cc1ccccc1)C(C)C)C(C)C` [ABCD-Phaol-N5O, Ac-Aib1-Pro2-Aib3-Ala4-Aib5-Ala6-Glu(OMe)7-Aib8-Val9-Aib10-Gly11-Leu12-Aib13-Pro14-Val15-Aib16-Aib17-Glu(OMe)18-Glu(OMe)19-Phaol20-N5O] (Ac-[Aib]P[Aib]A[Aib]AE(OMe)[Aib]V[Aib]GL[Aib]PV[Aib][Aib]E(OMe)E(OMe)-X3), for which the “Antibacterial activity (MIC) Bacillus cereus” value with Bacillus cereus is given as 50 µM. The “Antibacterial activity (MIC) Bacillus subtilis” value with Bacillus subtilis is recorded as more than 100 µM. For the same molecule, the “Antibacterial activity (MIC) Enterococcus faecalis” value with Enterococcus faecalis came to 1.5 µM. Also, the “Antibacterial activity (MIC) Staphylococcus aureus” value with Staphylococcus aureus [1] (setting [4]) is “^d (A reduced growth is clearly visible, but no MIC end point ≤100 µM)”.

Consider `CCCCCCNC[C@H](Cc1ccccc1)NC(=O)[C@H](CCC(=O)OC)NC(=O)[C@H](CCC(=O)OC)NC(=O)C(C)(C)NC(=O)C(C)(C)NC(=O)[C@@H](NC(=O)[C@@H]1CCCN1C(=O)C(C)(C)NC(=O)[C@H](CC(C)C)NC(=O)CNC(=O)C(C)(C)NC(=O)[C@@H](NC(=O)C(C)(C)NC(=O)[C@H](CCC(=O)OC)NC(=O)[C@H](C)NC(=O)C(C)(C)NC(=O)[C@H](C)NC(=O)C(C)(C)NC(=O)[C@@H]1CCCN1C(=O)C(C)(C)NC(C)=O)C(C)C)C(C)C` [ABCD-Phaol-N6, Ac-Aib1-Pro2-Aib3-Ala4-Aib5-Ala6-Glu(OMe)7-Aib8-Val9-Aib10-Gly11-Leu12-Aib13-Pro14-Val15-Aib16-Aib17-Glu(OMe)18-Glu(OMe)19-Phaol20-N6] (Ac-[Aib]P[Aib]A[Aib]AE(OMe)[Aib]V[Aib]GL[Aib]PV[Aib][Aib]E(OMe)E(OMe)-X2), for which the “Antibacterial activity (MIC) Bacillus cereus” value in the assay with Bacillus cereus is more than 100 µM. For the same molecule, in the assay with Bacillus subtilis, the “Antibacterial activity (MIC) Bacillus subtilis” value was more than 100 µM. Also, the “Antibacterial activity (MIC) Enterococcus faecalis” value with Enterococcus faecalis worked out at 25 µM. Besides, the “Antibacterial activity (MIC) Staphylococcus aureus” value with Staphylococcus aureus [1] was more than 100 µM.

For the molecule `COC(=O)CC[C@H](NC(=O)[C@H](C)NC(=O)C(C)(C)NC(=O)[C@H](C)NC(=O)C(C)(C)NC(=O)[C@@H]1CCCN1C(=O)C(C)(C)NC(C)=O)C(=O)NC(C)(C)C(=O)N[C@H](C(=O)NC(C)(C)C(=O)NCC(=O)N[C@@H](CC(C)C)C(=O)NC(C)(C)C(=O)N1CCC[C@H]1C(=O)N[C@H](C(=O)NC(C)(C)C(=O)NC(C)(C)C(=O)N[C@@H](CCC(=O)OC)C(=O)N[C@@H](CCC(=O)OC)C(=O)N[C@H](CNCCO)Cc1ccccc1)C(C)C)C(C)C` [ABCD-Phaol] (Ac-[Aib]P[Aib]A[Aib]AE(OMe)[Aib]V[Aib]GL[Aib]PV[Aib][Aib]E(OMe)E(OMe)-X1), the “Antibacterial activity (MIC) Bacillus cereus” value with Bacillus cereus is more than 50 µM. Also, the “Antibacterial activity (MIC) Bacillus subtilis” value with Bacillus subtilis is given as more than 50 µM. The “Antibacterial activity (MIC) Enterococcus faecalis” value with Enterococcus faecalis stood at 6 µM. Moreover, the “Antibacterial activity (MIC) Staphylococcus aureus” value in the assay on Staphylococcus aureus [1] is reported as more than 50 µM.

Turning to `CC(=O)NC(C)(C)C(=O)N1CCC[C@H]1C(=O)NC(C)(C)C(=O)N[C@@H](C)C(=O)NC(C)(C)C(=O)N[C@@H](C)C(=O)N[C@@H](CCC(N)=O)C(=O)NC(C)(C)C(=O)N[C@H](C(=O)NC(C)(C)C(=O)NCC(=O)N[C@@H](CC(C)C)C(=O)NC(C)(C)C(=O)N1CCC[C@H]1C(=O)N[C@H](C(=O)NC(C)(C)C(=O)NC(C)(C)C(=O)N[C@@H](CCC(N)=O)C(=O)N[C@@H](CCC(N)=O)C(=O)N[C@H](CNCCO)Cc1ccccc1)C(C)C)C(C)C` [Septocylindrin B synthetic] (Ac-[Aib]P[Aib]A[Aib]AQ[Aib]V[Aib]GL[Aib]PV[Aib][Aib]QQ-X1), the “Antibacterial activity (MIC) Bacillus cereus” value in the assay on Bacillus cereus worked out at 6.25 µM. For the same molecule, the “Antibacterial activity (MIC) Bacillus subtilis” value with Bacillus subtilis is given as 12.5 µM. Further, the “Antibacterial activity (MIC) Enterococcus faecalis” value with Enterococcus faecalis was determined as 6.25 µM. Also, the “Antibacterial activity (MIC) Staphylococcus aureus” value is reported as 12.5 µM in the assay with Staphylococcus aureus [1] and 8 µM in the assay with Staphylococcus aureus [3]. The “Antibacterial activity, result in words” value in assay [2] is “activity against all four bacteria tested”.

In the case of “Ac-Aib1-Pro2-Aib3-Ala4-Aib5-Ala6-Glu(OMe)7-Aib8-Val9-Aib10-Gly11-Leu12-Aib13-Pro14-Val15-Aib16-Aib17-Glu(OMe)18-Glu(OMe)19- Phe20-ethanolamine [ABCD-Phe-ethanolamine]”, the “Antibacterial activity (MIC) Bacillus cereus” value in the assay on Bacillus cereus (setting [5]) worked out at 100 µM. Besides, the “Antibacterial activity (MIC) Bacillus subtilis” value with Bacillus subtilis (setting [5]) was more than 100 µM. Moreover, the “Antibacterial activity (MIC) Enterococcus faecalis” value in the assay on Enterococcus faecalis (setting [5]) was found to be 6 µM. Besides, in the assay with Staphylococcus aureus [1] (setting [4]), the “Antibacterial activity (MIC) Staphylococcus aureus” value is reported as “^d (A reduced growth is clearly visible, but no MIC end point ≤100 µM)”.

Source of the values: publication PMC3527430, “Total Synthesis of Septocylindrin B and C-Terminus Modified Analogues” (PLoS ONE, 2012).
